According to patent publication US8183260B2, “5H-thioeno(3,4-c)pyrrole-4,6-dione derivatives and their use as tumor necrosis factor inhibitors” (Tianjin Hemay Bio-Tech Co., Ltd., priority 2005, dated 2012):
pIC50: −log10 of the molar value.

Test system: TNFα released by PBMCs
Test: Inhibition of TNFα release from monocytes (PBMC) stimulated by LPS, ELISA
Format: cell-based
Settings: Homo sapiens, LPS 0.1 μg/mL, 20 hr incubation; for inhibition at 100 µM: test concentration 100 μM; for inhibition at 100 µM / inhibition at 3 µM: read-out: Degree of inhibition (%); for pIC50: concentration giving 50% TNFα inhibition; for inhibition at 3 µM: test concentration 3.0 μM
Procedure: Cytokine TNFα released by PBMCs in the peripheral blood after […] (LPS) stimulation in vitro was studied. The followings are experimental protocols for studying cytokine TNFα released by PBMCs, which are inhibited by compounds of the invention.
PBMCs were obtained from blood of at least three volunteers after heparin treatment, using gradient extraction. PBMCs were collected and washed three times with a 1640 medium (10% calf serum, 2 mM L-glutamine, […], 50 μg/mL streptomycin, 50 U/mL penicillin), then placed into wells of a 24-well cell culture plate. The concentration was adjusted to 1×10^6 cells/mL with 1640 culture medium. […] The resultant solution was added to the cell culture medium and the culture plate was placed in a CO2 incubator (5% CO2, 90% humidity) for 1 hour. Then, LPS (Sigma) was added and its concentration was adjusted to 0.1 μg/mL (except for the control).
After a 20 hr incubation period, the content of TNFα in supernatant of the above PBMC culture medium was assayed by ELISA kit (America Genzyme Co), using standard method. The measured value of the control well (not treated with active components), and the measured value of the test wells containing the test compounds was used to calculate the TNFα inhibition rate. The concentration of compounds giving a 50% TNFα inhibition (IC50 value) was calculated using nonlinear regression analysis. Each concentration was determined twice and an average value was calculated.

Row | SMILES | inhibition at 100 µM [%] | pIC50 | inhibition at 3 µM [%]
1 | O=C1CCC(N2C(=O)c3cscc3C2=O)C(=O)N1 (stereo not shown) [Example 10, 5-(2,6-dioxopiperidin-3-yl)-5H-thieno(3,4-c)pyrrole-4,6-dione] | 32 |  | 
2 | CN1C(=O)CCC(N2C(=O)c3cscc3C2=O)C1=O (stereo not shown) [Example 13, 5-(1-methyl-2,6-dioxopiperidin-3-yl)-5H-thieno(3,4-c)pyrrole-4,6-dione] | 20 |  | 
3 | COC(=O)CN1C(=O)CCC(N2C(=O)c3cscc3C2=O)C1=O (stereo not shown) [Example 15, 5-(1-methoxycarbonylmethyl-2,6-dioxopiperidin-3-yl)-5H-thieno(3,4-c)pyrrole-4,6-dione] | 18 |  | 
4 | COCCN1C(=O)CCC(N2C(=O)c3cscc3C2=O)C1=O (stereo not shown) [Example 16, 5-(1-(2-methoxyethyl)-2,6-dioxopiperidin-3-yl)-5H-thieno(3,4-c)pyrrole-4,6-dione] | 28 |  | 
5 | O=C1CCC(N2C(=O)c3csc([N+](=O)[O-])c3C2=O)C(=O)N1 (stereo not shown) [Example 18, 1-nitro-5-(2,6-dioxopiperidin-3-yl)-5H-thieno(3,4-c)pyrrole-4,6-dione] | 28 |  | 
6 | Nc1scc2c1C(=O)N(C1CCC(=O)NC1=O)C2=O (stereo not shown) [Example 19, 1-amino-5-(2,6-dioxopiperidin-3-yl)-5H-thieno(3,4-c)pyrrole-4,6-dione] |  | 8.22 | 95
7 | CNc1scc2c1C(=O)N(C1CCC(=O)NC1=O)C2=O (stereo not shown) [Example 22, 1-methylamino-5-(2,6-dioxopiperidin-3-yl)-5H-thieno(3,4-c)pyrrole-4,6-dione] |  | 6.30 | 62
8 | CC(=O)Nc1scc2c1C(=O)N(C1CCC(=O)NC1=O)C2=O (stereo not shown) [Example 24, 1-acetamido-5-(2,6-dioxopiperidin-3-yl)-5H-thieno(3,4-c)pyrrole-4,6-dione] |  |  | 48
9 | CC1(N2C(=O)c3csc(N)c3C2=O)CCC(=O)NC1=O (stereo not shown) [Example 27, 1-amino-5-(3-methyl-2,6-dioxopiperidin-3-yl)-5H-thieno(3,4-c)pyrrole-4,6-dione] |  | 7.30 | 84
10 | CN1C(=O)CCC(N2C(=O)c3csc(N)c3C2=O)C1=O (stereo not shown) [Example 31, 1-amino-5-(1-methyl-2,6-dioxopiperidin-3-yl)-5H-thieno(3,4-c)pyrrole-4,6-dione] |  | 6.46 | 71
11 | O=C1CCC(N2C(=O)c3ccccc3C2=O)C(=O)N1 (stereo not shown) [Thalidomide, reference compound] | 22 | 3.74 | 
